Measurements: patent publication US20100330081A1, “CRIPTO BINDING MOLECULES” (priority 2007, published 2010)

Test system: CT-3 xenograft tumors (primary human colon tumor)
Test: CT-3 human colon tumor xenograft, combination with 5-fluorouracil (Example 2)
Format: in vivo, mice
Conditions: 5-fluorouracil alone, single dose 30 mg/kg/inj IV Day 15; study terminated Day 34
Excerpt: Two hundred eighteen (218) female SCID beige (C.B.-17/IcrHsd-Prkcd Lyst Skid Beige) mice (Harlan Sprague Dawley, Madison, Wis.) were started on the study at six to seven weeks of age. Animals were acclimated to the laboratory for at least two days prior to implantation of the tumor. Housing was in ventilated cage racks, and food and water were allowed ad libitum.
CT-3 tumor fragments from a primary human colon tumor were originally obtained from Sera Care, Inc (Oceanside, Calif.) (sent by Peter Chu, Biogen Idec, San Diego). A serially transplanted in-vivo xenograft line was established at Biogen Idec, Inc. and fragments from the third xenograft generation were cryopreserved. […]
On Day −1, the mice were implanted with BioMedics animal ID chips (Model IMI-1000; Seaford, Del.) SC on the left flank. […] Tumor size and body weight measurements were recorded at least twice weekly beginning on […]. When the tumors measured a minimum of 100 mg (Day 15), mice were randomized to treatment and control groups (see Table 2) based on tumor size and excluding tumors with non-progressive growth. […]
Tumor measurements were determined using digital calipers. Body weights and tumor size measurements were recorded on Day 6 and were continued twice weekly until the termination of the study. […]

O=c1[nH]cc(F)c(=O)[nH]1 [5-fluorouracil]
inhibition of tumor growth (change in tumor weight): significantly inhibited tumor growth throughout the study
